Measured values reported in article PMC6754336 (Drug Design, Development and Therapy, 2019).
Counter-ions that a name gives are not always drawn.

Columns and labels:
[1] = human plasma; cited from earlier work
[2] = in vivo; details: male, Wistar, rat, plasma, other: p.o. and i.v.
[3] = Rat dual-probe brain microdialysis study; format: in vivo; details: rat MD study, 1 mg/kg p.o.
[4] = system: dopamine turnover ((HVA+DOPAC)/DA); assay: Dopamine turnover index in rat striatum; format: in vivo; details: p.o.
[5] = system: serotonin turnover (5-HIAA/5-HT); assay: Serotonin turnover index in rat frontal cortex; format: in vivo; details: p.o.
[6] = system: dopamine biosynthesis; assay: NSD-1015-induced DOPA accumulation in striatum of reserpine-treated rats; format: in vivo, rat; details: p.o.

CN(C)C(=O)N[C@H]1CC[C@H](CCN2CCN(c3cccc(Cl)c3Cl)CC2)CC1 [CAR, trans-N-[4-[2-[4-(2,3-dichlorophenyl)piperazin-1-yl]ethyl]cyclohexyl]-N’,N’-dimethylureahydrochloride]
half-life in humans [1]: 24 to 72 h | half-life [2]: 2 to 3 h | free extracellular level as percent of total brain exposure [3]: 1–2% | extracellular levels in the brain ([3]; listed as cariprazine, 1 mg/kg): 2.6 to 9.9 nM | effect on dopamine turnover [4]: dose-dependently enhanced dopamine turnover | effect on serotonin turnover [5]: slightly reduced serotonin turnover | effect on NSD-1015-induced accumulation of DOPA [6]: inhibited the NSD-1015-induced accumulation of DOPA
